Assays:
MCF7 = experiment: In vitro cytotoxicity against human breast carcinoma cell line (MCF-7); format: functional; conditions: read-out: ID50 (the source's name)
MCF7-VP = experiment: In vitro cytotoxicity against multi drug resistant human breast carcinoma (MCF-7/VP-16) cell line; format: functional; conditions: read-out: ID50 (the source's name)
[1] = RI is the ratio of cytotoxicity against MCF-7/VP-16 cell line to that of MCF-7 cell line; format: functional, MCF7

## COc1cccc2c1C(=O)c1c(O)c3c(c(O)c1C2=O)C[C@@](O)(C(C)=O)C[C@@H]3OC1CC(NCc2ccc(CNC3CC(O[C@H]4C[C@](O)(C(C)=O)Cc5c(O)c6c(c(O)c54)C(=O)c4c(OC)cccc4C6=O)OC(C)C3O)cc2)C(O)C(C)O1.Cl.Cl (some centres undefined) [BISANTHRACYCLINE (WP631)]
MCF7
  IC50: 4.8 µM
MCF7-VP
  IC50: 2.5 µM
[1]
  RI: 0.5

## COc1cccc2c1C(=O)c1c(O)c3c(c(O)c1C2=O)C[C@@](O)(C(=O)CO)C[C@@H]3O[C@H]1C[C@H](N)[C@H](O)[C@H](C)O1 [DOXORUBICIN]
MCF7-VP
  IC50: 14.2 µM

— ChEMBL document CHEMBL1130281, “Structure-based design of a new bisintercalating anthracycline antibiotic” (1997)
